One may read the IC50 as the concentration needed to halve the response being measured. A low value points to inhibition by little substance.

These results are taken from patent US20260124222A1, “ISOTHIAZOLYLCARBOXAMIDE COMPOUNDS AND THEIR USE IN THERAPY” (HOTSPOT THERAPEUTICS, INC., priority 2022, published 2026).

Molecules are shown by their SMILES.

In the experiment the target is T1, Avi-tagged FL MALT-1 (Homo sapiens, UniProt Q9UDY8).
T1 construct: Avi-tagged FL MALT-1 (Pharmaron, stored at −70° C.); Avi-tag; purchased Pharmaron
T1 sequence (Q9UDY8 1-824): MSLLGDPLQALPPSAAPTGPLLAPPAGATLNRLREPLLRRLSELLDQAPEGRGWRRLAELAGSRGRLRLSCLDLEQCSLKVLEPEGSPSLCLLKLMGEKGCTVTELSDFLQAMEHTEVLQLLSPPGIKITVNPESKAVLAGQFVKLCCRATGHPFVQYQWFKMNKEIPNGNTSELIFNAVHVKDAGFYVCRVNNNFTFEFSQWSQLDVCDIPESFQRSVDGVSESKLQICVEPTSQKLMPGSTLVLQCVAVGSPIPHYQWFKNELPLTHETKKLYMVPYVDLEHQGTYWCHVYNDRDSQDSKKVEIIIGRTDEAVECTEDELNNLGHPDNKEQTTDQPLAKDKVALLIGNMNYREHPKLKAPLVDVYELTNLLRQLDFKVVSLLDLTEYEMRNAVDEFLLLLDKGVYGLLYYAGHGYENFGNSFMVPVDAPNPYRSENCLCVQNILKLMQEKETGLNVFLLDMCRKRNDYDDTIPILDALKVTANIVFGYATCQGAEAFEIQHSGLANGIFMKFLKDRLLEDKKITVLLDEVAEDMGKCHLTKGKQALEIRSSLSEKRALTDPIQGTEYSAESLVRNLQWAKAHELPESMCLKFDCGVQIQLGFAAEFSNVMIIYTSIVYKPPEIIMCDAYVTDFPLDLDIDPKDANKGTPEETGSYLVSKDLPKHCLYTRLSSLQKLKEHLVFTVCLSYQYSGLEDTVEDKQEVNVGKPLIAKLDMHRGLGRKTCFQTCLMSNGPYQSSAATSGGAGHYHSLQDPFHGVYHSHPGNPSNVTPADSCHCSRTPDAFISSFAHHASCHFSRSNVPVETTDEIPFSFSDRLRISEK
Put plainly: MALT-1 Fluorogenic Peptide Cleavage Assay (MALT1 inhibition assay). It counts as biochemical. Particulars: Ac-LRSR-AMC peptide substrate; 30 min pre-incubation, 90 min reaction at room temperature; fluorescence. The method, then: Inhibition of MALT1 activity by a small molecule was evaluated using MALT-1 Fluorogenic Peptide Cleavage Assay. The assay utilizes a quenched AMC-labelled peptide that contains the MALT-1 recognition sequence and cleavage site (LRSR). MALT-1 mediated cleavage of the peptide relieves the quenching and leads to an increase in fluorescence at excitation (342 nm) and emission (441 nm).
The following reagents were obtained commercially and used to prepare standard reagent formulations as further described below: N-2-hydroxyethylpiperazine-N-2-ethane sulfonic acid (HEPES) (1 M, pH 7.5, stored at 4° C.), sodium citrate (stored at RT), tris(2-carboxyethyl)phosphine hydrochloride (T-CEP) (500 mM, stored at −20° C.), ethylenediaminetetraacetic acid (EDTA) (500 mM, stored at RT), dimethylsulfoxide (DMSO, stored at RT), 3-[(3-cholamidopropyl)dimethylammonio]-1-propane sulphate (CHAPS) (stored at RT), dimethylsulfoxide (DMSO), DMSO (Fisher Scientific, stored at RT), Avi-tagged FL MALT-1 (Pharmaron, stored at −70° C.), Ac-LRSR-AMC Peptide (SM Biochemicals, stored at −20° C.), and ultrapure water (MILLI-Q®).
The standard reagent formulations used in this assay were prepared and stored as follows. A 1.1 M solution of sodium citrate (161.3 g, 500 mL) was prepared and stored at room temperature. A 10% (w/v) CHAPS solution (2.0 g, 20 mL) was prepared and stored at 4° C. A 500 mM HEPES solution having pH of 6.89 was prepared from 200 mL of a 1 M HEPES solution having a pH of 7.5 using concentrated hydrochloric acid and brought to a final volume of 400 mL with MILLI-Q© H2O. The substrate, 10 mM Ac-LRSR-AMC Peptide, was prepared (10 mg, 1.370 mL DMSO) and stored at −20° C.
Compounds were plated to provide a 2% DMSO final concentration using a ProxiPlate-384 Plus F Black 384-shallow well microplate. The assay-ready plates were equilibrated to room temperature. A reaction buffer (30 mL total volume) was prepared by combining HEPES (pH 6.89, 25 mM, 1.5 mL), sodium citrate (660 mM, 18.0 mL), T-CEP (1 mM, 0.06 mL), EDTA (0.1 mM, 0.06 mL), CHAPS (0.05%, 0.15 mL), DMSO (2%, 0.6 mL), and MILLI-Q® H2O (10.23 mL; 9.63 mL when backfilled to 2% DMSO) followed by thorough mixing.
MALT-1 was thawed and kept on ice. Peptide substrate was thawed on the bench under ambient conditions. A MALT-1 enzyme working stock was prepared from Avi-tagged FL MALT-1 (40 nM in a prepared reagent volume of […]) and the reaction buffer (13.0 mL). MALT1 working stock (5 μL) was added to each well of the microplate. MALT-1 was pre-incubated with compounds for 30 minutes at room temperature.
Two substrate working stocks (Km and 10×Km) were prepared. The 1×Km substrate was prepared from Ac-LRSR-AMC Peptide (50 μM in a prepared reagent volume of […]) and the reaction buffer (6.965 mL). The 10×Km substrate was prepared from Ac-LRSR-AMC Peptide ([…] in a prepared reagent volume of 196.0 μL) and the reaction buffer (6.804 mL). The reaction was initiated by the addition of substrate working stock (5 μL, 50 μM) to Km plates and the addition of substrate working stock (5 μL 280 μM) to 10×Km plates. The plates were covered and incubated on the bench at room temperature for 90 minutes.
Fluorescence intensity was determined using a CLARIOstar microplate reader (BMG LABTECH) using the optimised AMC mode. Before taking readings, a 70% gain was applied on the neutral control well. Compound data were normalised to % Inhibition and used to plot sigmoidal concentration response curves to yield various parameters including IC50.
`O=C(Nc1ccc(C(=O)N2CC(O)C2)c(Cl)c1)c1snc(-c2ncccc2Cl)c1C1CC1` [I-49, N-(3-CHLORO-4-(3-HYDROXYAZETIDINE-1-CARBONYL)PHENYL)-3-(3-CHLOROPYRIDIN-2-YL)-4-CYCLOPROPYL-ISOTHIAZOLE-5-CARBOXAMIDE] yielded an IC50 of 1000 to 2500 nM. Regarding `CN(C)C(=O)c1ncc(NC(=O)c2snc(-c3ccccc3)c2C2CC2)cc1Cl` [I-50, N-(5-CHLORO-6-(DIMETHYLCARBAMOYL) PYRIDIN-3-YL)-4-CYCLOPROPYL-3-PHENYLISOTHIAZOLE-5-CARBOXAMIDE], the IC50 is not above 400 nM. In the case of `CC(=O)N(C)c1ncc(NC(=O)c2snc(-c3ccccc3)c2C2CC2)cc1C#N` [I-51, N-(5-CYANO-6-(N-METHYLACETAMIDO) PYRIDIN-3-YL)-4-CYCLOPROPYL-3-PHENYLISOTHIAZOLE-5-CARBOXAMIDE], the IC50 is not above 400 nM. Compound `N#Cc1cc(NC(=O)c2snc(O)c2C2CC2)cnc1-n1nccn1` [I-52, N-(5-CYANO-6-(2H-1,2,3-TRIAZOL-2-YL) PYRIDIN-3-YL)-4-CYCLOPROPYL-3-HYDROXYISOTHIAZOLE-5-CARBOXAMIDE] yielded an IC50 of more than 2500 nM. `N#Cc1cc(NC(=O)c2snc(-c3ccccc3)c2C2CC2)cnc1N1CCOCC1` [I-53, N-(5-CYANO-6-MORPHOLINOPYRIDIN-3-YL)-4-CYCLOPROPYL-3-PHENYLISOTHIAZOLE-5-CARBOXAMIDE] gave an IC50 not above 400 nM. `CN1CCN(c2ncc(NC(=O)c3snc(-c4ccccc4)c3C3CC3)cc2C#N)CC1` [I-54, N-(5-CYANO-6-(4-METHYLPIPERAZIN-1-YL) PYRIDIN-3-YL)-4-CYCLOPROPYL-3-PHENYLISOTHIAZOLE-5-CARBOXAMIDE] gave an IC50 not above 400 nM.

`CN(C)C(=O)c1ccc(NC(=O)c2snc(-c3ccccc3)c2C2CC2)cc1C(F)(F)F` [I-55, 4-CYCLOPROPYL-N-(4-(DIMETHYL-CARBAMOYL)-3-(TRIFLUOROMETHYL) PHENYL)-3-PHENYLISOTHIAZOLE-5-CARBOXAMIDE] displayed an IC50 not above 400 nM. Take `CC(C)c1nsc(C(=O)Nc2cnc(-n3nccn3)c(C#N)c2)c1C1CC1` [I-56, N-(5-CYANO-6-(2H-1,2,3-TRIAZOL-2-YL) PYRIDIN-3-YL)-4-CYCLOPROPYL-3-ISOPROPYLISOTHIAZOLE-5-CARBOXAMIDE]: the IC50 is not above 400 nM. For `O=C(Nc1cnc(-n2nccn2)c(Cl)c1)c1nsc(-c2ccccc2)c1C(F)(F)F` [I-57, N-(5-CHLORO-6-(2H-1,2,3-TRIAZOL-2-YL) PYRIDIN-3-YL)-5-PHENYL-4-(TRIFLUOROMETHYL)ISOTHIAZOLE-3-CARBOXAMIDE] the value was not above 400 nM; for `O=C(Nc1cnc(C(=O)N2CC(O)C2)c(Cl)c1)c1snc(-c2ccccc2)c1C1CC1` [I-58, N-(5-CHLORO-6-(3-HYDROXYAZETIDINE-1-CARBONYL)PYRIDIN-3-YL)-4-CYCLOPROPYL-3-PHENYLISOTHIAZOLE-5-CARBOXAMIDE], not above 400 nM; for `O=C(Nc1ccc(C(=O)N2CC(O)C2)nc1)c1snc(-c2ccccc2)c1C1CC1` [I-59, 4-CYCLOPROPYL-N-(6-(3-HYDROXY-AZETIDINE-1-CARBONYL)PYRIDIN-3-YL)-3-PHENYLISOTHIAZOLE-5-CARBOXAMIDE], more than 2500 nM. As for `CC(C)c1nsc(C(=O)Nc2cnc(-n3nccn3)c(Cl)c2)c1C1CC1` [I-60, N-(5-CHLORO-6-(2H-1,2,3-TRIAZOL-2-YL) PYRIDIN-3-YL)-4-CYCLOPROPYL-3-ISOPROPYLISOTHIAZOLE-5-CARBOXAMIDE], the figure is not above 400 nM.

As to `N#Cc1cc(NC(=O)c2snc(-c3ccccc3)c2C2(O)COC2)cnc1-n1nccn1` [I-61], the 50% inhibitory concentration (IC50) was more than 2500 nM. The compound `CN1Cc2cc(NC(=O)c3snc(-c4ccccc4)c3C3CC3)ccc2C1=O` [I-62, 4-CYCLOPROPYL-N-(2-METHYL-1-OXOISOINDOLIN-5-YL)-3-PHENYLISOTHIAZOLE-5-CARBOXAMIDE] had an IC50 of more than 2500 nM. For `Cn1ccc2cc(NC(=O)c3snc(-c4ccccc4)c3C3CC3)ccc2c1=O` [I-98], the IC50 is more than 2500 nM. In turn, `O=C(Nc1cnc(-n2nccn2)c(Cl)c1)c1snc(-c2cccc3[nH]c(=O)ccc23)c1C(F)(F)F` [I-99] showed an IC50 not above 400 nM. As for `N#Cc1cc(NC(=O)c2snc(-c3cccc4ncsc34)c2C2CC2)cnc1-n1nccn1` [I-100], the figure is not above 400 nM; as for `Cn1ncc2cccc(-c3nsc(C(=O)Nc4cnc(-n5nccn5)c(C#N)c4)c3C3CC3)c21` [I-101], not above 400 nM; as for `CN(C)c1nsc(C(=O)Nc2cnc(-n3nccn3)c(C#N)c2)c1C(F)(F)F` [I-102], not above 400 nM. In turn, `O=C(Nc1ccnc(C(F)(F)F)c1)c1snc(-c2cccc3ncsc23)c1C1CC1` [I-103] had an IC50 not above 400 nM.

As for `Cc1cc(NC(=O)c2snc(-c3cccc4ncsc34)c2C2CC2)ccn1` [I-104], the IC50 was not above 400 nM. `COc1ccc2c(-c3nsc(C(=O)Nc4cnc(-n5nccn5)c(Cl)c4)c3C(F)(F)F)cccc2n1` [I-105] gave an IC50 not above 400 nM.

In turn, `COc1nccc2c(-c3nsc(C(=O)Nc4cnc(-n5nccn5)c(Cl)c4)c3C(F)(F)F)cccc12` [I-106] displayed an IC50 not above 400 nM. For `O=C(Nc1cnc(-n2nccn2)c(Cl)c1)c1snc(-c2cccc3c(=O)[nH]ccc23)c1C(F)(F)F` [I-107] the value was not above 400 nM. In turn, `Cn1cccc(-c2nsc(C(=O)Nc3cnc(-n4nccn4)c(C#N)c3)c2C(F)(F)F)c1=O` [I-108] registered an IC50 of 1000 to 2500 nM. Turning to `N#Cc1cc(NC(=O)c2snc(-c3cccc4ncoc34)c2C2CC2)cnc1-n1nccn1` [I-109], the IC50 is not above 400 nM. For the compound `N#Cc1cc(NC(=O)c2snc(C3CCOC3)c2C2CC2)cnc1-n1nccn1` (stereo not drawn) [I-110], the IC50 was in the range of 400 to 1000 nM. Take `CN1Cc2cc(NC(=O)c3snc(-c4ccccc4)c3C3CC3)cnc2C1=O` [I-111]: the IC50 is more than 2500 nM.

For `Cc1cccnc1-c1nsc(C(=O)Nc2cnc(-n3nccn3)c(C#N)c2)c1C1CC1` [I-112], the IC50 is not above 400 nM.

`Cc1cc(NC(=O)c2snc(-c3cccc4ncoc34)c2C2CC2)cnc1-n1nccn1` [I-113] had an IC50 not above 400 nM. With `N#Cc1cc(NC(=O)c2snc(-c3cccn4nccc34)c2C2CC2)cnc1-n1nccn1` [I-114], the IC50 is not above 400 nM. The compound `N#Cc1cc(NC(=O)c2snc(C3CCOC3)c2C2CC2)cnc1-n1nccn1` (stereo not drawn) [I-115] gave an IC50 not above 400 nM. `Cc1cn(C)nc1-c1nsc(C(=O)Nc2cnc(-n3nccn3)c(C#N)c2)c1C1CC1` [I-116] gave an IC50 not above 400 nM.
